Earlier results on five compounds are cited in publication PMC5465257, “Evaluation of JNJ-54717793 a Novel Brain Penetrant Selective Orexin 1 Receptor Antagonist in Two Rat Models of Panic Attack Provocation” (Frontiers in Pharmacology, 2017).

For one data set, the system named is GABA synthesis. More on the design: method as in earlier work. Conditions: 3.5 nmol/0.5 μl per hour, unilateral infusions; ref Shekhar and DiMicco, 1987; Abshire et al., 1988; Shekhar et al., 1996, 2006; Shekhar and Keim, 1997; cited from earlier work.
Details of data set [1]: method as in Beig et al., 2015a. The note with it: systemic administration; ref Beig et al., 2015a; cited from earlier work.
The next data set relates to Sprague-Dawley rats. On the set-up: method as in Bonaventure et al., 2015b; Johnson et al., 2015. Conditions: 20% CO2 model, ref Bonaventure et al., 2015b, Johnson et al.; cited from earlier work.
Details of data set [2]: method as in Furlong et al., 2009. The note with it: ref Furlong et al., 2009; cited from earlier work.

Regarding `C=CC[C@H](N)C(=O)O` [1-allyglycine], the “reduction of local GABA concentrations” value in the data set on GABA synthesis is given as “approximately 60%”.
Regarding `COc1ccc(C[C@H]2c3cc(OC)c(OC)cc3CCN2[C@@H](C(=O)NC(C)C)c2ccccc2)cc1OC` [ACT335827], the “novelty stress (cage changes) induced cardioexcitation” value in data set [1] is “attenuates”.
Regarding `CCN(Cc1cccnc1)C(=O)CN(c1ccc(OC)nc1)S(=O)(=O)c1ccccc1C` [EMPA, N-ethyl-2-[(6-methoxy-pyridin-3-yl)-(toluene-2-sulfonyl)-amino]-N-pyridin-3-ylmethyl-acetamide], the “novelty stress (cage changes) induced cardioexcitation” value in data set [1] is on record as “attenuates”.
Regarding `CC1(C)OC[C@H](NC(=O)Nc2ccc(Br)cc2Br)[C@H](c2ccccc2)O1` [JNJ-10397049], in the data set on Sprague-Dawley rats, the “panic responses to 20% CO2” value is “did not alter”.
Consider `CNC(=O)[C@@H](c1ccccc1)N1CCc2cc(OC)c(OC)cc2[C@@H]1CCc1ccc(C(F)(F)F)cc1` [almorexant], for which the “locomotor and cardiovascular responses to exploration and footshock” value in data set [2] is given as “attenuated”.
